{"source": "patent US10167262B2", "about": "“Herbicidal substituted 3-arylpyrazoles” (FMC CORPORATION, priority 2014, dated 2019)", "type_in_all_cases": "in vivo", "key": {"soybean (Glycine max)": {"test_system": "soybean (Glycine max)", "assay": "Test C pre-/postemergence greenhouse test, plant response rating 0-100", "conditions": "Postemergence", "in_short": "(§1)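 Plants were scored visually against controls 13–15 days after treatment on a 0–100 scale, 100 meaning complete control. Test chemicals, formulated in surfactant-containing non-phytotoxic solvent, went preemergence onto seeds in loam–sand blend or postemergence onto 1- to 4-leaf plants (2–18 cm) grown in peat-based mix.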"}, "[1]": {"test_system": "pigweed (Amaranthus retroflexus)", "assay": "Test C pre-/postemergence greenhouse test, plant response rating 0-100", "conditions": "Postemergence", "in_short": "as §1"}, "[2]": {"test_system": "yellow nutsedge (Cyperus esculentus)", "assay": "Test C pre-/postemergence greenhouse test, plant response rating 0-100", "conditions": "Postemergence", "in_short": "as §1"}, "[3]": {"test_system": "lambsquarters (Chenopodium album)", "assay": "Test C pre-/postemergence greenhouse test, plant response rating 0-100", "conditions": "Postemergence", "in_short": "as §1"}, "[4]": {"test_system": "johnsongrass (Sorghum halepense)", "assay": "Test C pre-/postemergence greenhouse test, plant response rating 0-100", "conditions": "Postemergence", "in_short": "as §1"}, "[5]": {"test_system": "giant foxtail (Setaria faberii)", "assay": "Test C pre-/postemergence greenhouse test, plant response rating 0-100", "conditions": "Postemergence", "in_short": "as §1"}, "[6]": {"test_system": "winter wheat (Triticum aestivum)", "assay": "Test C pre-/postemergence greenhouse test, plant response rating 0-100", "conditions": "Postemergence", "in_short": "as §1"}, "[7]": {"test_system": "galium (catchweed bedstraw, Galium aparine)", "assay": "Test C pre-/postemergence greenhouse test, plant response rating 0-100", "conditions": "Postemergence", "in_short": "as §1"}, "corn (Zea mays)": {"test_system": "corn (Zea mays)", "assay": "Test C pre-/postemergence greenhouse test, plant response rating 0-100", "conditions": "Postemergence", "in_short": "as §1"}, "[8]": {"test_system": "Italian ryegrass (Lolium multiflorum)", "assay": "Test C pre-/postemergence greenhouse test, plant response rating 0-100", "conditions": "Postemergence", "in_short": "as §1"}, "[9]": {"test_system": "chickweed (common chickweed, Stellaria media)", "assay": "Test C postemergence greenhouse test, plant response rating 0-100", "in_short": "(§2)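 First, plants were raised in a sphagnum peat, vermiculite and nutrient medium to 1–4 leaves. Next, formulated test compounds were applied over the foliage. Finally, after 13–15 greenhouse days, injury was compared with controls and scored 0–100.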"}, "kochia (Kochia scoparia)": {"test_system": "kochia (Kochia scoparia)", "assay": "Test C postemergence greenhouse test, plant response rating 0-100", "in_short": "as §2"}, "wild oat (Avena fatua)": {"test_system": "wild oat (Avena fatua)", "assay": "Test C postemergence greenhouse test, plant response rating 0-100", "in_short": "as §2"}}}
{"smiles": "Fc1ccccc1NN=C(c1ccccc1)c1c[nH]nc1-c1cc(Cl)cc(Cl)c1", "note": "[Compound 57]", "values": [{"measurement": "Plant response rating (0 to 100), Soybean", "setting": "soybean (Glycine max); 62 g ai/ha", "value": 0}, {"measurement": "Plant response rating (0 to 100), Soybean", "setting": "soybean (Glycine max); 125 g ai/ha", "value": 0}, {"measurement": "Plant response rating, Soybean", "setting": "soybean (Glycine max); 250 g ai/ha, scale 0 to 100", "value": 0}, {"measurement": "Plant response rating (0 to 100), Pigweed", "setting": "[1]; 62 g ai/ha", "value": 70}, {"measurement": "Plant response rating, Pigweed", "setting": "[1]; 250 g ai/ha, scale 0 to 100", "value": 75}, {"measurement": "Plant response rating (0 to 100), Nutsedge, Yellow", "setting": "[2]; 62 g ai/ha", "value": 0}, {"measurement": "Plant response rating (0 to 100), Nutsedge, Yellow", "setting": "[2]; 125 g ai/ha", "value": 0}, {"measurement": "Plant response rating, Nutsedge, Yellow", "setting": "[2]; 250 g ai/ha, scale 0 to 100", "value": 5}, {"measurement": "Plant response rating (0 to 100), Lambsquarters", "setting": "[3]; 62 g ai/ha", "value": 60}, {"measurement": "Plant response rating (0 to 100), Lambsquarters", "setting": "[3]; 125 g ai/ha", "value": 100}, {"measurement": "Plant response rating (0 to 100), Johnsongrass", "setting": "[4]; 62 g ai/ha", "value": 0}, {"measurement": "Plant response rating (0 to 100), Johnsongrass", "setting": "[4]; 125 g ai/ha", "value": 0}, {"measurement": "Plant response rating, Johnsongrass", "setting": "[4]; 250 g ai/ha, scale 0 to 100", "value": 0}, {"measurement": "Plant response rating (0 to 100), Foxtail, Giant", "setting": "[5]; 31 g ai/ha", "value": 0}, {"measurement": "Plant response rating (0 to 100), Foxtail, Giant", "setting": "[5]; 62 g ai/ha", "value": 0}, {"measurement": "Plant response rating (0 to 100), Foxtail, Giant", "setting": "[5]; 125 g ai/ha", "value": 0}, {"measurement": "Plant response rating, Foxtail, Giant", "setting": "[5]; 250 g ai/ha, scale 0 to 100", "value": 5}, {"measurement": "Plant response rating (0 to 100), Wheat", "setting": "[6]; 62 g ai/ha", "value": 0}, {"measurement": "Plant response rating (0 to 100), Wheat", "setting": "[6]; 125 g ai/ha", "value": 0}, {"measurement": "Plant response rating, Wheat", "setting": "[6]; 250 g ai/ha, scale 0 to 100", "value": 0}, {"measurement": "Plant response rating (0 to 100), Galium", "setting": "[7]; 31 g ai/ha", "value": 0}, {"measurement": "Plant response rating (0 to 100), Galium", "setting": "[7]; 62 g ai/ha", "value": 0}, {"measurement": "Plant response rating (0 to 100), Galium", "setting": "[7]; 125 g ai/ha", "value": 0}, {"measurement": "Plant response rating, Galium", "setting": "[7]; 250 g ai/ha, scale 0 to 100", "value": 0}, {"measurement": "Plant response rating (0 to 100), Corn", "setting": "corn (Zea mays); 31 g ai/ha", "value": 0}, {"measurement": "Plant response rating (0 to 100), Corn", "setting": "corn (Zea mays); 62 g ai/ha", "value": 0}, {"measurement": "Plant response rating (0 to 100), Corn", "setting": "corn (Zea mays); 125 g ai/ha", "value": 0}, {"measurement": "Plant response rating, Corn", "setting": "corn (Zea mays); 250 g ai/ha, scale 0 to 100", "value": 0}, {"measurement": "Plant response rating (0 to 100), Ryegrass, Italian", "setting": "[8]; 62 g ai/ha", "value": 0}, {"measurement": "Plant response rating (0 to 100), Ryegrass, Italian", "setting": "[8]; 125 g ai/ha", "value": 0}, {"measurement": "Plant response rating, Ryegrass, Italian", "setting": "[8]; 250 g ai/ha, scale 0 to 100", "value": 0}, {"measurement": "Plant response rating (0 to 100), Chickweed", "setting": "[9]; 31 g ai/ha", "value": 60}, {"measurement": "Plant response rating (0 to 100), Chickweed", "setting": "[9]; 62 g ai/ha", "value": 100}, {"measurement": "Plant response rating (0 to 100), Chickweed", "setting": "[9]; 125 g ai/ha", "value": 100}, {"measurement": "Plant response rating, Chickweed", "setting": "[9]; 250 g ai/ha, scale 0 to 100", "value": 100}, {"measurement": "Plant response rating (0 to 100), Kochia", "setting": "kochia (Kochia scoparia); 62 g ai/ha", "value": 65}, {"measurement": "Plant response rating (0 to 100), Kochia", "setting": "kochia (Kochia scoparia); 125 g ai/ha", "value": 65}, {"measurement": "Plant response rating, Kochia", "setting": "kochia (Kochia scoparia); 250 g ai/ha, scale 0 to 100", "value": 80}, {"measurement": "Plant response rating (0 to 100), Oat, Wild", "setting": "wild oat (Avena fatua); 62 g ai/ha", "value": 0}, {"measurement": "Plant response rating (0 to 100), Oat, Wild", "setting": "wild oat (Avena fatua); 125 g ai/ha", "value": 0}, {"measurement": "Plant response rating, Oat, Wild", "setting": "wild oat (Avena fatua); 250 g ai/ha, scale 0 to 100", "value": 0}]}
